# Measurements published in patent US6916837B2, “Amidino derivatives and anticoagulants and thrombosis therapeutic agents containing them” (Eisai Co., Ltd., priority 2001, dated 2005).
# Where a name gives a salt, the structure may show the parent alone.
# Molecular target: T1, human blood clotting factor VIIa (Homo sapiens, UniProt P08709)
# T1 construct: 5 nM human blood clotting factor VIIa
# Test: Inhibiting activity against blood clotting factor VIIa (Spectrozyme VII chromogenic assay)
# Assay type: biochemical
# Details: 10 nM human tissue factor, 5 nM human blood clotting factor VIIa, Spectrozyme VII substrate, 40 minutes at room temperature, absorbance 405 nm
# Experimental: Pharmacological Activity Test (Inhibiting Activity Against Blood Clotting Factor VIIa)
# Compounds of the present invention (Examples 1-4, 1-26, 1-39, 1-40 and 8-3) were each dissolved in dimethyl sulfoxide to 5 mg/ml, and then each solution was diluted 50-fold with reaction buffer to prepare a 100 μg/ml solution (2% dimethyl sulfoxide solution) Also, a 10-fold dilution series with reaction buffer was prepared with the compound solutions from 100 μg/ml to 1 ng/ml. Separately, dimethyl sulfoxide alone was diluted 50-fold with reaction buffer to prepare a 2% dimethyl sulfoxide solution as a control. The composition of the reaction buffer was 50 mM Tris-acetate (pH 7.5), 15 mM calcium chloride (CaCl2), 0.15 M sodium chloride (NaCl) and 6 mg/ml Cephalin. There were also added to the buffer 10 nM human tissue factor (TF) and 5 nM human blood clotting factor VIIa, to prepare enzyme solutions. After separating off 65 μl of each solution, a 10 μl portion of the 2% dimethyl sulfoxide solution of each compound of the invention was added and preincubation was performed at room temperature. As a substrate there was added 25 μl of 1.0 mM Spectrozyme VII, and reaction was conducted for 40 minutes at room temperature. The enzyme reaction rate was quantified by the change ion absorbance of released 4-nitroanilide at 405 nm.
# For measurement of the inhibiting activity against human blood clotting factor VIIa, the enzyme reaction rate was determined in the presence of the above-mentioned compounds of the present invention from 10 μg/ml to 0.1 ng/ml. The IC50 values were calculated based on nonlinear regression analysis, as an index of the inhibiting activity against human blood clotting factor VIIa.
# T1 sequence (P08709 213-466 limits assumed): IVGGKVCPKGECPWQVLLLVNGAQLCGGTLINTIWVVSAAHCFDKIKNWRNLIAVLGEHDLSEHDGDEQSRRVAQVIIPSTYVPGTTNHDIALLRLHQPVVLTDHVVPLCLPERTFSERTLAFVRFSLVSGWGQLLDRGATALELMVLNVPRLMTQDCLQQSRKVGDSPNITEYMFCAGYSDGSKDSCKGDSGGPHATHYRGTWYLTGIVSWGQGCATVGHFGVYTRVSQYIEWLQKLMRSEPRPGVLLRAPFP
# T1 sequence (P08709 61-212 limits assumed): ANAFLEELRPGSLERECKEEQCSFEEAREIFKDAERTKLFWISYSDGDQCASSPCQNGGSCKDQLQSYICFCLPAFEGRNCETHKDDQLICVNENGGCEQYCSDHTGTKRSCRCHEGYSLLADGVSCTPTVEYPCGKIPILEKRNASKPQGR
# T1 sequence (P13726 33-295 partner): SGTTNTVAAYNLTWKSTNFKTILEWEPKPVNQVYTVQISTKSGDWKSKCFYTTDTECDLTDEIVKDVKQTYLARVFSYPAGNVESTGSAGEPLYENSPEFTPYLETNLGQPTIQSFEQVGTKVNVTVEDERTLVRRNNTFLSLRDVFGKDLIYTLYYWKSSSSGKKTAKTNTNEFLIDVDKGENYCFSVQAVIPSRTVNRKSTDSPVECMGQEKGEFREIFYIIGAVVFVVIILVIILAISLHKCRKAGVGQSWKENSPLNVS
row,Compound,IC50
1,"N=C(N)c1ccc2cc(Oc3ccc(NS(=O)(=O)c4ccc5ccccc5c4)cc3C(=O)O)ccc2c1 [Example 1-4, 2-(6-amidino-2-naphthyloxy)-5-(2-naphthalenesulfonyl)aminobenzoic acid trifluoroacetate]",1430 nM
2,"COc1ccc(S(=O)(=O)Nc2ccc(Oc3ccc4cc(C(=N)N)ccc4c3)c(-c3ccccc3C(=O)O)c2)cc1 [Example 1-26, 2′-(6-amidino-2-naphthyloxy)-5′-(4-methoxybenzenesulfonyl)amino-1,1′-biphenyl-2-carboxylic acid trifluoroacetate]",210 nM
3,"CC(=O)N1CCc2ccc(S(=O)(=O)Nc3ccc(Oc4ccc5cc(C(=N)N)ccc5c4)c(-c4ccccc4C(=O)O)c3)cc2C1 [Example 1-39, 2′-(6-amidino-2-naphthyloxy)-5′-[1,2,3,4-tetrafluoro-2-(acetyl)isoquinoline-7-sulfonyl)amino-1,1′-biphenyl-2-carboxylic acid trifluoroacetate]",30 nM

# More lines, now with the values ahead:
row,IC50,Compound
1,40 nM,"Cc1ccc(S(=O)(=O)Nc2ccc(Oc3ccc4cc(C(=N)N)ccc4c3)c(-c3ccccc3C(=O)O)c2)cc1Cl [Example 1-40, 2′-(6-amidino-2-naphthyloxy)-5′-(3-chloro-4-methylbenzenesulfonyl)amino-1,1′-biphenyl-2-carboxylic acid trifluoroacetate]"
2,4 nM,"Cc1ccc(S(=O)(=O)Nc2ccc(Oc3ccc4cc(C(=N)N)ccc4c3)c(-c3ccc(C(=O)NCC(C)C)cc3C(=O)O)c2)cc1Cl [Example 8-3, 2′-(6-amidino-2-naphthyloxy)-4-(2-methylpropylcarbamoyl)-5′-(3-chloro-4-methylbenzenesulfonyl)amino-1,1′-biphenyl-2-carboxylic acid trifluoroacetate]"
